{
  "source": "patent US7212853B1",
  "about": "(priority 1996, dated 2007)",
  "experiment": "Transdermal electrotransport delivery of goserelin at current densities of 50 and 100 μA/cm^2 (Example 3)",
  "format": "in vivo, human",
  "conditions": "for average transdermal goserelin flux: 8 hours, 12 volunteers",
  "procedure": "This study was undertaken to evaluate the relationship between current density and drug flux in the transdermal electrotransport delivery of goserelin. The study involved the application of electrotransport devices, applying constant current, to 12 normal male volunteers for a duration of 8 hours.\nThe two electrotransport treatment regimens in this study differed only in applied current density levels. The electrotransport devices delivered goserelin through the skin from polyvinyl alcohol (PVOH)-based donor hydrogels having a skin-contact surface area of 4 cm^2. The gels contained an aqueous goserelin solution. The current density levels used in this study were 50 and 100 μA/cm^2. After an 8 hour treatment period, the electrotransport devices were removed. The skin site was then washed to remove any residual goserelin. All 12 volunteers received each treatment seven days apart.\nFor each treatment, seven blood samples were taken over a 24 hour period commencing with the application of current from the electrotransport devices. Serum goserelin concentrations from each patient were used to calculate mean drug flux and the mean total amount of drug delivered.",
  "data": [
    {"compound": "CC(C)C[C@H](NC(=O)[C@@H](COC(C)(C)C)NC(=O)[C@H](Cc1ccc(O)cc1)NC(=O)[C@H](CO)NC(=O)[C@H](Cc1c[nH]c2ccccc12)NC(=O)[C@H](Cc1cnc[nH]1)NC(=O)[C@@H]1CCC(=O)N1)C(=O)N[C@@H](CCCNC(=N)N)C(=O)N1CCC[C@H]1C(=O)NNC(N)=O", "note": "[goserelin]", "values": [
      {"measurement": "average transdermal goserelin flux", "setting": "50 μA/cm^2, constant current", "result": 5.8, "unit": "µg/h"},
      {"measurement": "average transdermal goserelin flux", "setting": "100 μA/cm^2, constant current", "result": 21.6, "unit": "µg/h"},
      {"measurement": "increase in drug flux", "setting": "current density rises from 50 to 100 μA/cm^2", "result": "four"}
    ]}
  ]
}
